Several values for one entry are separate records, joined by “and”; a condition that tells them apart may be missing. Equal values may be shown once. Inconclusive results and toxic doses are left out. The calls were made as follows: active = survival T/C of 150% or more; inactive = T/C below 125% in these data.
Tested on: BDF1 mice, P388 leukemia ip, median survival T/C
Assay: NCI In Vivo Anticancer Drug Screen. Data for tumor model P388 Leukemia (intraperitoneal) in B6D2F1 (BDF1) mice
Conditions: endpoint: median survival time, higher = longer survival
Summary of the method: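 Read-out is survival of treated animals expressed relative to the vehicle group, as a T/C ratio.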

[1] = dose: 100.0 mg/kg/injection, schedule: Q04DX003 (ip), vehicle: saline with Tween-80
[2] = dose: 200.0 mg/kg/injection, schedule: Q04DX003 (ip), vehicle: saline with Tween-80
[3] = dose: 400.0 mg/kg/injection, schedule: Q04DX003 (ip), vehicle: saline with Tween-80
[4] = dose: 100.0 mg/kg/injection, schedule: Q01DX009 (ip), vehicle: saline with Tween-80
[5] = dose: 100.0 mg/kg/injection, schedule: Q04DX003 (ip), vehicle: saline sonified
[6] = dose: 200.0 mg/kg/injection, schedule: Q04DX003 (ip), vehicle: saline sonified
[7] = dose: 400.0 mg/kg/injection, schedule: Q04DX003 (ip), vehicle: saline sonified
[8] = dose: 50.0 mg/kg/injection, schedule: Q01DX009 (ip), vehicle: Klucel (hydroxypropylcellulose) (HPC)
[9] = dose: 50.0 mg/kg/injection, schedule: Q01DX009 (ip), vehicle: saline

Measured: T/C

CCCCc1c2c(nn1C(C)=O)C(=O)C=C(Nc1ccccc1)C2=O
inactive: [1] 100 % of control | [2] 99 % of control

CCC[CH2][Sn]1([CH2]CCC)[O]OC(C)(CC)[O]1 (stereo unspecified)
inactive: dose: 0.69 mg/kg/injection, schedule: Q01DX009 (ip), vehicle: saline with Tween-80 108 % of control | dose: 1.04 mg/kg/injection, schedule: Q01DX009 (ip), vehicle: saline with Tween-80 104 % of control | dose: 1.56 mg/kg/injection, schedule: Q01DX009 (ip), vehicle: saline with Tween-80 120 % of control | dose: 2.35 mg/kg/injection, schedule: Q01DX009 (ip), vehicle: saline with Tween-80 104 % of control

O=[N+]([O-])c1ccc(Cl)c2c([N+](=O)[O-])cccc12
inactive: dose: 50.0 mg/kg/injection, schedule: Q04DX003 (ip), vehicle: saline with Tween-80 104 % of control | [1] 109 % of control | [2] 109 % of control

O=C(Nc1ccc(C2=NCCN2)cc1)c1ccc(C(=O)Nc2ccc(C3=NCCN3)cc2)c(F)c1
active: [1] 172 % of control | [2] 213 % of control | dose: 264.0 mg/kg/injection, schedule: Q04DX003 (ip), vehicle: saline with Tween-80 226 % of control | [3] 250 % of control and 221 % of control | dose: 600.0 mg/kg/injection, schedule: Q04DX003 (ip), vehicle: saline with Tween-80 191 % of control

O=c1oc2ccccc2c2c1Cc1c(oc3ccc4ccccc4c3c1=O)O2
inactive: dose: 50.0 mg/kg/injection, schedule: Q01DX009 (ip), vehicle: saline with Tween-80 91 % of control | [4] 95 % of control | dose: 200.0 mg/kg/injection, schedule: Q01DX009 (ip), vehicle: saline with Tween-80 92 % of control

COC(=O)c1ccccc1NC(=O)C(Cl)Cl
inactive: dose: 75.0 mg/kg/injection, schedule: Q04DX003 (ip), vehicle: olive oil, sesame oil, peanut oil 95 % of control | dose: 100.0 mg/kg/injection, schedule: Q01DX001 (ip), vehicle: olive oil, sesame oil, peanut oil 95 % of control | dose: 150.0 mg/kg/injection, schedule: Q04DX003 (ip), vehicle: olive oil, sesame oil, peanut oil 95 % of control | dose: 200.0 mg/kg/injection, schedule: Q01DX001 (ip), vehicle: olive oil, sesame oil, peanut oil 90 % of control | dose: 300.0 mg/kg/injection, schedule: Q04DX003 (ip), vehicle: olive oil, sesame oil, peanut oil 100 % of control | dose: 400.0 mg/kg/injection, schedule: Q01DX001 (ip), vehicle: olive oil, sesame oil, peanut oil 100 % of control

O=c1[nH]cnc2sc3c(c12)CCCC3
inactive: [5] 95 % of control | [6] 100 % of control | [7] 100 % of control

OCCN=Cc1ccccc1
inactive: [1] 100 % of control | [2] 100 % of control

NC(CS(=O)(=O)c1ccc(N(CCCl)CCCl)cc1)C(=O)O (stereo unspecified)
inactive: dose: 100.0 mg/kg/injection, schedule: Q01DX001 (ip), vehicle: saline with Tween-80 108 % of control | dose: 200.0 mg/kg/injection, schedule: Q01DX001 (ip), vehicle: saline with Tween-80 101 % of control | dose: 400.0 mg/kg/injection, schedule: Q01DX001 (ip), vehicle: saline with Tween-80 90 % of control

C/C(=C/B1OCCO1)CCl
inactive: [5] 105 % of control | [6] 100 % of control | [7] 110 % of control

FC(F)(F)c1nc(Cl)nc(Cl)c1Cl
inactive: dose: 3.12 mg/kg/injection, schedule: Q01DX005 (ip), vehicle: saline 105 % of control | dose: 6.25 mg/kg/injection, schedule: Q01DX005 (ip), vehicle: saline 100 % of control | dose: 12.5 mg/kg/injection, schedule: Q01DX005 (ip), vehicle: saline 110 % of control

COc1ccc2c(c1)-c1nn(CCO)c(-c3ccncc3)c1CC2
inactive: dose: 100.0 mg/kg/injection, schedule: Q04DX002 (ip), vehicle: DMSO 100 % of control | dose: 200.0 mg/kg/injection, schedule: Q04DX002 (ip), vehicle: DMSO 99 % of control | dose: 400.0 mg/kg/injection, schedule: Q04DX002 (ip), vehicle: DMSO 103 % of control

CCCCC/C(C)=N\Nc1ccccn1
inactive: dose: 12.5 mg/kg/injection, schedule: Q01DX009 (ip), vehicle: Klucel (hydroxypropylcellulose) (HPC) 100 % of control | dose: 25.0 mg/kg/injection, schedule: Q01DX009 (ip), vehicle: Klucel (hydroxypropylcellulose) (HPC) 113 % of control | [8] 104 % of control and 113 % of control | dose: 100.0 mg/kg/injection, schedule: Q01DX009 (ip), vehicle: Klucel (hydroxypropylcellulose) (HPC) 118 % of control

CC(=O)SCCNCCNC1CC2CCC1C2 (stereo unspecified)
inactive: dose: 5.75 mg/kg/injection, schedule: Q01DX009 (ip), vehicle: saline 104 % of control | dose: 11.5 mg/kg/injection, schedule: Q01DX009 (ip), vehicle: saline 104 % of control

CSCC(C(N)=O)c1cc(Cl)ccc1Cl (stereo unspecified)
inactive: dose: 25.0 mg/kg/injection, schedule: Q01DX009 (ip), vehicle: water 97 % of control | dose: 50.0 mg/kg/injection, schedule: Q01DX009 (ip), vehicle: water 103 % of control | [4] 100 % of control | dose: 100.0 mg/kg/injection, schedule: Q01DX009 (ip), vehicle: water 101 % of control | dose: 100.0 mg/kg/injection, schedule: Q04DX003 (ip), vehicle: water 95 % of control | dose: 200.0 mg/kg/injection, schedule: Q04DX003 (ip), vehicle: water 100 % of control | dose: 400.0 mg/kg/injection, schedule: Q04DX003 (ip), vehicle: water 100 % of control

CCC1c2ccc3cc(OC)ccc3c2CC1CC(=O)O (stereo unspecified)
inactive: dose: 100.0 mg/kg/injection, schedule: Q01DX001 (ip), vehicle: other 100 % of control | dose: 200.0 mg/kg/injection, schedule: Q01DX001 (ip), vehicle: other 110 % of control | dose: 400.0 mg/kg/injection, schedule: Q01DX001 (ip), vehicle: other 105 % of control

CC(C)=CC(=O)OC1C2C(C)C(=O)OC2C(O)C(C)C2C=CC(=O)C21C (stereo unspecified)
inactive: dose: 3.12 mg/kg/injection, schedule: Q01DX009 (ip), vehicle: saline 94 % of control | dose: 6.25 mg/kg/injection, schedule: Q01DX009 (ip), vehicle: saline 101 % of control | dose: 12.5 mg/kg/injection, schedule: Q01DX009 (ip), vehicle: saline 103 % of control | dose: 25.0 mg/kg/injection, schedule: Q01DX009 (ip), vehicle: saline 120 % of control | [8] 118 % of control | [9] 120 % of control

CCCC(=O)Oc1ccc2c(C)cc(=O)oc2c1
inactive: [1] 104 % of control | [2] 90 % of control | [3] 100 % of control

O=C1CC2OCC=C3CN4CCC56c7ccccc7N1C5C2C3CC46 (stereo unspecified) (tested in a mixture with another compound)
inactive: dose: 0.5 mg/kg/injection, schedule: Q04DX003 (ip), vehicle: saline + alcohol 95 % of control | dose: 1.0 mg/kg/injection, schedule: Q04DX003 (ip), vehicle: saline + alcohol 110 % of control

COc1cc(-c2ccc(N=Nc3c(O)ccc4ccccc34)c(OC)c2)ccc1N=Nc1ccc2c(S(=O)(=O)O)cc(S(=O)(=O)O)c(N)c2c1O
inactive: [9] 111 % of control | dose: 50.0 mg/kg/injection, schedule: Q04DX003 (ip), vehicle: saline 104 % of control | dose: 100.0 mg/kg/injection, schedule: Q04DX003 (ip), vehicle: saline 100 % of control | dose: 200.0 mg/kg/injection, schedule: Q01DX009 (ip), vehicle: saline 105 % of control | dose: 200.0 mg/kg/injection, schedule: Q04DX003 (ip), vehicle: saline 100 % of control

CC(C)[C@]12O[C@H]1[C@@H]1O[C@]13[C@]1(O[C@H]1C[C@H]1C4=C(C(=O)OC4)[C@@H](O)C[C@@]13C)[C@@H]2O
active: dose: 0.25 mg/kg/injection, schedule: Q01DX009 (ip), vehicle: saline + alcohol 150 % of control
inactive: dose: 0.03 mg/kg/injection, schedule: Q01DX009 (ip), vehicle: saline + alcohol 100 % of control and 106 % of control | dose: 0.06 mg/kg/injection, schedule: Q01DX009 (ip), vehicle: saline + alcohol 113 % of control and 117 % of control | dose: 0.13 mg/kg/injection, schedule: Q01DX009 (ip), vehicle: saline + alcohol 120 % of control | dose: 3.8 micrograms/kg/injection, schedule: Q01DX009 (ip), vehicle: saline 104 % of control | dose: 6.5 micrograms/kg/injection, schedule: Q01DX009 (ip), vehicle: saline 104 % of control | dose: 13.0 micrograms/kg/injection, schedule: Q01DX009 (ip), vehicle: saline 95 % of control | dose: 25.0 micrograms/kg/injection, schedule: Q01DX009 (ip), vehicle: saline 109 % of control | dose: 100.0 micrograms/kg/injection, schedule: Q01DX009 (ip), vehicle: saline + alcohol 90 % of control

Source: PubChem BioAssay AID328 (DTP/NCI, 2004)
